This experiment concerns leukemia cell lines. Put plainly: PARP-1 cleavage by Western blot. Type of experiment: cell-based, human. The note with it: 24 h of drug exposure; undetectable with DMSO 0.1 %. As for the experimental part:
In order to assess whether cytotoxicity was correlated to increased susceptibility to apoptosis, B-/T-ALL cell lines were incubated with increasing concentrations of drug (0.1, 0.5, and 1 μM and 0.05, 0.1, and 0.2 μM only for BV-173 and RPMI-8402, respectively) for 24 and 48 h. […] The induction of apoptosis by PF-00477736 was also assessed by the detection of poly (ADP-ribose) polymerase (PARP) cleavage by Western blot analysis.
To gain insight into the molecular mechanisms responsible for cell death following treatment, functional analyses by Western blot were performed. Leukemia cell lines were plated in six-well plates at 500,000 cell/1 ml with increasing concentrations of drug for 24 h and incubated at 37 °C. After the treatment, the cells were collected and lysate using a specific buffer made of KH2PO4 0.1 M (pH 7.5), Igepal 1 % (NP-40), β-glicerofosfato 0.1 mM, and complete protease inhibitor cocktail 1× (Roche Diagnostics). […] Finally, all these antibodies were detected using the enhanced chemiluminescence kit ECL (GE) and the compact darkroom ChemiDoc-It (UVP).
(A western blot detects proteins with antibodies after separation by electrophoresis.)

Turning to `Cn1cc(-c2[nH]c3cc(NC(=O)[C@H](N)C4CCCCC4)cc4c3c2C=NNC4=O)cn1` [PF-00477736], the PARP-1 cleavage entry is “PARP-1 cleavage band at 89 kDa was observed”.

These data come from PMC4635624, “In vitro and in vivo single-agent efficacy of checkpoint kinase inhibition in acute lymphoblastic leukemia” (Journal of Hematology & Oncology, 2015).
